Assay results taken from patent US20240058456A1, “MOLECULES WITH SOLUBILITY TAG AND RELATED METHODS” (Merck Patent GmbH, priority 2020, published 2024).

Experiment: Solubility and aggregation during conjugation
Format: physicochemical
Details: conjugation media
Description: To this end, 1 eq antibody in a buffer with 150 mM NaCl, 25 mM Tris (pH 8.0) was mixed with a solution of the respective payload (10× or 20× surplus to the concentration of the antibody, depending on the number of linkage sites) and 6 U/ml of transglutaminase. The mixture was incubated for 16 h in a thermomixer at 37° C. and 450 rpm.
For linkage by maleimide chemistry, a 5 mg/mL solution of the respective antibody component in PBS (pH 7.4) was prepared (˜33 μM antibody). The antibody was reduced with TCEP ((tris(2-carboxyethyl)phosphine); ratio of antibody component to TCEP 1:2 to 1:6, depending on the desired DAR; TCEP was used as 2 mM stock, pH 7.0) or in some cases with DTT (dithiothreitol; 20 mM). After incubation for 0.5-2 hours (depending on the number of cysteines to be activated) in a 37° C. water bath, the reaction was allowed to cool down to room temperature.
The solution was desalted to conjugation buffer (10 mM sodium phosphate, pH 6.0, 2 mM EDTA, N2 degassed) on a Sephadex G25 column and adjusted to an antibody concentration of 0.2 mg/mL in conjugation buffer.
Conjugation was initiated by adding the reduced antibody to a solution of the appropriate maleimide-activated linker-payload construct at a suitable ratio (e.g. 1:4 to 1:8 ratio antibody to linker-payload construct for DAR 4; e.g. 1:20 ratio antibody to linker-payload construct for DAR 8). […]

## Cc1cccc2c(OC(=O)N(CCC(=O)NCCOS(=O)(=O)O)CCN(C)C(=O)OCc3ccc(NC(=O)[C@H](CCCNC(N)=O)NC(=O)[C@@H](NC(=O)CNC(=O)CNC(=O)CN)C(C)C)cc3)cc3c(c12)[C@H](CCl)CN3C(=O)c1cn2cc(NC(=O)c3cc4ccccc4o3)ccc2n1 [Compound 5]
  solubility of the linker-payload construct under coupling conditions: insufficient
